Among the data in PMC6930494, “Immobilization of Naringinase from Penicillium decumbens on Chitosan Microspheres for Debittering Grapefruit Juice” (Molecules, 2019) are Km values, retold here.

A word on the Km: it is the concentration of substrate that gives half-maximal velocity.

This assay concerns T1, naringinase.
T1 construct: gene naringinase alpha-L-rhamnosidase activity
Nature of the assay: initial rates of naringin hydrolysis, Davis or DNS method, Lineweaver-Burk. It is filed as biochemical, Penicillium decumbens. Particulars: free enzyme; 0.1 M acetate buffer pH 4.0, 50 °C; naringin 0.5-20 mM; commercial enzyme complex. An excerpt:
initial rates of naringin hydrolysis, Davis or DNS method, Lineweaver-Burk on naringinase

`C[C@@H]1O[C@@H](O[C@H]2[C@H](Oc3cc(O)c4c(c3)O[C@H](c3ccc(O)cc3)CC4=O)O[C@H](CO)[C@@H](O)[C@@H]2O)[C@H](O)[C@H](O)[C@H]1O` [naringin]: the Km was 2560 µM.
